# Results: US20240181080A1, “METHOD FOR CONTROLLING HETEROGENEITY OF VASCULAR ENDOTHELIAL CELLS BY UTILIZING SYMPATHETIC NERVES” (priority 2021, published 2024)
# Where a name gives a salt, the structure may show the parent alone.
# Columns and labels:
# hM4Di = biological target: T1, hM4Di (Homo sapiens, UniProt P08173, A203G/Y113C); conditions: comparator not stated; patent notes structural similarity to clozapine; cited from earlier work
# T1 sequence (P08173 1-479 Y113C/A203G): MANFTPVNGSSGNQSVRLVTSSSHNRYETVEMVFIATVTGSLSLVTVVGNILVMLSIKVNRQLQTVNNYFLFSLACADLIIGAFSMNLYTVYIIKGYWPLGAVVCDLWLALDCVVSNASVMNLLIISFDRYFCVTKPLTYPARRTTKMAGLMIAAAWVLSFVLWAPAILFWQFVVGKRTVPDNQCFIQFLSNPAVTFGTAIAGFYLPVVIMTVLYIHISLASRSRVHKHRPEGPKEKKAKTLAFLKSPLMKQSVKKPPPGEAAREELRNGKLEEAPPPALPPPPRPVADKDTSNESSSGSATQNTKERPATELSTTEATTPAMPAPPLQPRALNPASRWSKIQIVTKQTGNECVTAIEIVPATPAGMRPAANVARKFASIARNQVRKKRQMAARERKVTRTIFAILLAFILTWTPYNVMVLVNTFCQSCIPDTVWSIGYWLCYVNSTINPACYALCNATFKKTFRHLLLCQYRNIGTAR
# hM3Dq = hM3Dq (Homo sapiens, UniProt P20309, A239G/Y149C); conditions: comparator not stated; patent notes structural similarity to clozapine; cited from earlier work
# [1] = Example 1: microCT of the trabecular bone at the femoral epiphyseal end, after intraosseous hM3Dq virus and CNO injection; format: in vivo, TH-Cre transgenic mouse; conditions: CNO 1 mg/kg every 48 h for 4 weeks
# [2] = Example 2: microCT of the trabecular bone at the femoral epiphyseal end, after intraosseous hM4Di virus and CNO injection; format: in vivo, TH-Cre transgenic mouse; conditions: CNO 1 mg/kg every 48 h for 4 weeks
# [3] = system: H-subtype bone vascular endothelial cells; test: Example 1: fluorescence microscopy (CD31, EMCN) of bone vascular endothelial cells at the femoral epiphyseal end, after intraosseous hM3Dq virus and CNO injection; format: in vivo, TH-Cre transgenic mouse; conditions: hM3Dq side vs mCherry control side; CNO 1 mg/kg every 48 h for 4 weeks
# Protocol: A TH-Cre transgenic mouse aged 4 weeks was selected and anesthetized, and then the skin and muscle on the femur of the mouse were carefully parted. A hole was made in the femur using a small needle to reach the marrow cavity. Using a microsyringe, 1 μL of pAAV-hSyn-DIO-hM3D(Gq)-mCherry with a viral titer of about […] was slowly injected into the long bone marrow cavity of the TH-Cre mouse on one side of the femur in the lower limb through the small hole, serving as an experimental group (recorded as hM3Dq); on the other side, pAAV-hSyn-DIO-mCherry was injected, serving as a control group (recorded as mCherry). […]
# After recovery of the mouse and 6 weeks of expression of the gene carried by the virus, CNO was injected (at a dose to achieve a concentration of 1 mg/kg in the mouse) every 48 h for 4 consecutive weeks. […] Data were expressed as (Means±S.E.M.); P<0.05 was considered a significant difference.
# CD31 is marked with green fluorescence, and EMCN is marked with red fluorescence; both are markers for H-subtype bone vascular endothelium. The stronger the fluorescence intensity, the more complete the vascular morphology, indicating greater expression of CD31 and EMCN, i.e., the higher number of the H-subtype bone vascular endothelial cells. […]
# [4] = system: H-subtype bone vascular endothelial cells; test: Example 2: fluorescence microscopy (CD31, EMCN) of bone vascular endothelial cells at the femoral epiphyseal end, after intraosseous hM4Di virus and CNO injection; format: in vivo, TH-Cre transgenic mouse; conditions: hM4Di side vs mCherry control side; CNO 1 mg/kg every 48 h for 4 weeks
# [5] = system: L-subtype vascular endothelium; conditions: aged C57BL/6J male mice; prior art; cited from earlier work
# Sequence of hM3Dq (P20309 whole entry Y149C/A239G): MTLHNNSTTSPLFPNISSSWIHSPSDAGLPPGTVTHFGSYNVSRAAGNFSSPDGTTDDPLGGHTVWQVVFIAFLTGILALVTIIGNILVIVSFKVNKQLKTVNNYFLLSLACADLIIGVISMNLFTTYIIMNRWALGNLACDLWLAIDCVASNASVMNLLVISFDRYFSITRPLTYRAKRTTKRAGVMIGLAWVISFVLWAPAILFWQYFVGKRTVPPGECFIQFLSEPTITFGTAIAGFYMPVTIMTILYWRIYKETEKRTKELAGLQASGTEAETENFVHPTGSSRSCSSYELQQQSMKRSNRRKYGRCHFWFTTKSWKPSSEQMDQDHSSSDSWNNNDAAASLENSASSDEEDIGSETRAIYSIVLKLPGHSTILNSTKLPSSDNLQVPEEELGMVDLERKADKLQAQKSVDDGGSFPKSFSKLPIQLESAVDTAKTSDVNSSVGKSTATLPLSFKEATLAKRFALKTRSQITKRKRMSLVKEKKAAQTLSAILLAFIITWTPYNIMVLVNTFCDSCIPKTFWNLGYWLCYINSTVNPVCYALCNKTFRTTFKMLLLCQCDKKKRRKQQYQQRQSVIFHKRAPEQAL
smiles,measurement,setting,value
CN1CCN(C2=Nc3ccccc3Nc3ccccc32)CC1 [Deschloroclozapine],affinity for hM4Di,hM4Di,higher
same,affinity for hM3Dq,hM3Dq,higher
"C[N+]1([O-])CCN(C2=Nc3cc(Cl)ccc3Nc3ccccc32)CC1 [CNO, Clozapine N-oxide]",bone mass of the trabecular bone,[1],rise
same,bone mass of the trabecular bone,[2],decrease
same,number of the H-subtype bone vascular endothelial cells near the long bone growth plate,[3],increased
same,sympathetic nerve activity,[3],activated
same,number of the H-subtype bone vascular endothelial cells,[4],reduced
same,sympathetic nerve activity,[4],inhibited
CC(=O)N(O)CCCCCNC(=O)CCC(=O)N(O)CCCCCNC(=O)CCC(=O)N(O)CCCCCN [deferoxamine mesylate],bone mineral density,[5],increasing
same,reverse transformation of L-subtype vascular endothelium into H-subtype vascular endothelium,[5],promotes
